The kinase profiling compilation of Christmann-Franck et al. (2016)

Assays:
Test in all cases: radiometric filter-binding kinase assay, Kinase HotSpot
Details in all cases: compound 0.5 µM; ATP 10 µM
[1] = target: DYRK1A (human) (UniProt Q13627)
[2] = target: PTK6 (human) (UniProt Q13882)
[3] = target: NEK2 (human) (UniProt P51955)
[4] = target: MAPKAPK2 (human) (UniProt P49137)
[5] = target: ACVRL1 (human) (UniProt P37023)
[6] = target: CHUK (human) (UniProt O15111)
[7] = target: DYRK1B (human) (UniProt Q9Y463)
[8] = target: STK25 (human) (UniProt O00506)
[9] = target: CDK9 CCNK (human) (UniProt O75909+P50750)
Chain of CDK9 CCNK (human) (O75909 whole entry, looked up): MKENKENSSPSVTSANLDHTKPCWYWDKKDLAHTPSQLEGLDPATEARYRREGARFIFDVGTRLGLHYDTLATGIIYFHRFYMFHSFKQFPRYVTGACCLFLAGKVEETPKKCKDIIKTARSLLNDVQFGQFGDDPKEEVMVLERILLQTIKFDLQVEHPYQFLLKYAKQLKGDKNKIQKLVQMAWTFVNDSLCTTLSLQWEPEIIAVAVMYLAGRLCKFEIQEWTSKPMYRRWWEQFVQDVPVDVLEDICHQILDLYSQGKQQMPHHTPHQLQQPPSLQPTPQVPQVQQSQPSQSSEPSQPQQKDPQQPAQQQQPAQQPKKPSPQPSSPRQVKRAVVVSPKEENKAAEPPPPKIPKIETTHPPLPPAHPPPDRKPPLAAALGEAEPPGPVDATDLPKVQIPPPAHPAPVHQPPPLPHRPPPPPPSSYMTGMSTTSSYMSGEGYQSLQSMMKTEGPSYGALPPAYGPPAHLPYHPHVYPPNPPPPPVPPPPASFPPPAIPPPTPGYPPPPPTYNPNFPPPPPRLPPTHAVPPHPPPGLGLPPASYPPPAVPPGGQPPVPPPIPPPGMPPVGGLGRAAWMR
Chain of CDK9 CCNK (human) (P50750 whole entry, looked up): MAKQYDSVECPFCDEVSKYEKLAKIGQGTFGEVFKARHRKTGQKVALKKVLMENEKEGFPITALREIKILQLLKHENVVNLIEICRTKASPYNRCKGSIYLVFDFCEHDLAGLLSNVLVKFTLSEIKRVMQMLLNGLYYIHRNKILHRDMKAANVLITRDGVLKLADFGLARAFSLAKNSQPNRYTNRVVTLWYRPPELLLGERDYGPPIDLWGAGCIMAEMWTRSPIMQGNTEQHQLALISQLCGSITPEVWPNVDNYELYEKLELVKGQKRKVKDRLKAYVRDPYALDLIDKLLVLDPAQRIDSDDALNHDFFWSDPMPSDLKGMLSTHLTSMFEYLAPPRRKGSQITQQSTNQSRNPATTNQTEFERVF

[10] = target: HIPK4 (human) (UniProt Q8NE63)
[11] = target: KDR (human) (UniProt P35968)
[12] = target: KIT (human) (UniProt P10721)
[13] = target: PTK2B (human) (UniProt Q14289)
[14] = target: EPHA1 (human) (UniProt P21709)
[15] = target: MAP2K2 (human) (UniProt P36507)
Chain of MAP2K2 (human) (P36507 whole entry, looked up): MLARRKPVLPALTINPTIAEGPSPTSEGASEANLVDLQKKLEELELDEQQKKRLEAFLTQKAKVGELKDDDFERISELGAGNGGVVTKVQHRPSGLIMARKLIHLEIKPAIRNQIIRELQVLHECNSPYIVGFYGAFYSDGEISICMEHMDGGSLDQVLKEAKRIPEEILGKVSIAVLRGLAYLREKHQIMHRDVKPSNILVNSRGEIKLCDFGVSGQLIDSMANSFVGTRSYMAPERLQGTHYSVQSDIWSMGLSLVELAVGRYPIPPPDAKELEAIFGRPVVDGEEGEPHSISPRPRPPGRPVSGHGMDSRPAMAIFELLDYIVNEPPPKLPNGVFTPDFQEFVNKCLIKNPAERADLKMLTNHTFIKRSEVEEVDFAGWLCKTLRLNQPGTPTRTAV

[16] = target: AURKC (human) (UniProt Q9UQB9)
[17] = target: CLK3 (human) (UniProt P49761)
[18] = target: ROS1 (human) (UniProt P08922)
[19] = target: PRKCH (human) (UniProt P24723)
[20] = target: DYRK4 (human) (UniProt Q9NR20)
[21] = target: NEK1 (human) (UniProt Q96PY6)
[22] = target: MAPK1 (human) (UniProt P28482)
[23] = target: PKN2 (human) (UniProt Q16513)
Chain of PKN2 (human) (Q16513 whole entry, looked up): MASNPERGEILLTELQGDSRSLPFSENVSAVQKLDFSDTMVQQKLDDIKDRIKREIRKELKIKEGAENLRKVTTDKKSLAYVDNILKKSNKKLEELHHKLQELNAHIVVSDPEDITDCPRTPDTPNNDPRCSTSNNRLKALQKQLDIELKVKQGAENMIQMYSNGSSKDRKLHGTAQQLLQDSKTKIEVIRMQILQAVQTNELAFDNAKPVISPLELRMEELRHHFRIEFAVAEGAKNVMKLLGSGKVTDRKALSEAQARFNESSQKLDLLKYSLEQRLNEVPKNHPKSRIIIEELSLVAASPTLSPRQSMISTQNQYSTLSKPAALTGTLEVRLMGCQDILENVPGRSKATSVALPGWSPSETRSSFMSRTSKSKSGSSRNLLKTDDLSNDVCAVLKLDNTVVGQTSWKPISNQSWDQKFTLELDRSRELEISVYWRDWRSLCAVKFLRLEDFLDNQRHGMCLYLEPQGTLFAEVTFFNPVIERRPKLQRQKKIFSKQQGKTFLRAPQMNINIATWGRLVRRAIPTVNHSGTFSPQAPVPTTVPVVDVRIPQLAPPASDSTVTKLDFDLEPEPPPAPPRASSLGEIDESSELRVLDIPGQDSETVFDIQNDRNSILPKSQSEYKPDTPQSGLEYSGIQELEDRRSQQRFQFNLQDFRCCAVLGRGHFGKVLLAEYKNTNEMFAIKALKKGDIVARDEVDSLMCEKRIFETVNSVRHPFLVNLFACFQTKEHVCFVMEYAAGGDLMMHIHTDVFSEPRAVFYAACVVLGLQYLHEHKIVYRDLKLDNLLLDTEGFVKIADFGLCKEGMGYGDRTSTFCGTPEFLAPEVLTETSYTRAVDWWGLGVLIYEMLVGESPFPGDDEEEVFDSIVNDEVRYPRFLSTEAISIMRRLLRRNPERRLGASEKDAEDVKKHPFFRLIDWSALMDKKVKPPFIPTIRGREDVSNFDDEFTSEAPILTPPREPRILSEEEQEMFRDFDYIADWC

[24] = target: TSSK1B (human) (UniProt Q9BXA7)
Chain of TSSK1B (human) (Q9BXA7 whole entry, looked up): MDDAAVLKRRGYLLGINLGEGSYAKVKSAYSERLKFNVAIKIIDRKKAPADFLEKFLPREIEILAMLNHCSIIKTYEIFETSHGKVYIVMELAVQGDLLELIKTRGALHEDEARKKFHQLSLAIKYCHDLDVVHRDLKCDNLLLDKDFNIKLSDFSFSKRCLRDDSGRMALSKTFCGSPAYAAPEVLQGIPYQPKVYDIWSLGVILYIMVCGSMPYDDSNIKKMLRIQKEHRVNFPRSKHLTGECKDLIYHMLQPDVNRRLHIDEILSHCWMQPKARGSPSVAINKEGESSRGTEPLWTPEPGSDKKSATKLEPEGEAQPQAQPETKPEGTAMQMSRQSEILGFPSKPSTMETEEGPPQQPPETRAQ

[25] = target: PRKCB1 (human) (UniProt P05771)
[26] = target: JAK1 JH1 catalytic (human) (UniProt P23458)
[27] = target: RPS6KA2 KD1 KD2 (human) (UniProt Q15349)
[28] = target: GSK3A (human) (UniProt P49840)
[29] = target: TEC (human) (UniProt P42680)
[30] = target: STK39 (human) (UniProt Q9UEW8)
[31] = target: WEE1 (human) (UniProt P30291)
[32] = target: DCLK2 (human) (UniProt Q8N568)
[33] = target: MELK (human) (UniProt Q14680)
[34] = target: FLT1 (human) (UniProt P17948)
[35] = target: STK17A (human) (UniProt Q9UEE5)
[36] = target: CSNK1G3 (human) (UniProt Q9Y6M4)
[37] = target: CAMKK2 (human) (UniProt Q96RR4)
[38] = target: CSK (human) (UniProt P41240)
[39] = target: CSNK2A2 (human) (UniProt P19784)
[40] = target: RPS6KA5 KD2 (human) (UniProt O75582)
[41] = target: TGFBR1 (human) (UniProt P36897)
Chain of TGFBR1 (human) (P36897 whole entry, looked up): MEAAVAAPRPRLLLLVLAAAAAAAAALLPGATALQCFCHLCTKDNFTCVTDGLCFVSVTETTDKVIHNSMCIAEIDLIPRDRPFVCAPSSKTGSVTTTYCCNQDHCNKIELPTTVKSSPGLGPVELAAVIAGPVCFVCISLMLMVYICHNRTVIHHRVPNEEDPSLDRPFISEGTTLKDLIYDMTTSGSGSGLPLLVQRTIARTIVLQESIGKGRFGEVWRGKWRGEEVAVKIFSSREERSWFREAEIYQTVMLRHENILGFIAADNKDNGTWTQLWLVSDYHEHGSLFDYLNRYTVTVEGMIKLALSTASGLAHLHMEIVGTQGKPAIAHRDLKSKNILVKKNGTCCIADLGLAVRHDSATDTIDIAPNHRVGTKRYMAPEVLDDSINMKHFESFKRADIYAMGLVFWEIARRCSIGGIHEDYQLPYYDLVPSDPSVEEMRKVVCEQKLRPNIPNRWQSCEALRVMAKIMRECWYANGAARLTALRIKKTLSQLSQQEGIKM

[42] = target: CDK6 CCND3 (human) (UniProt P30281+Q00534)
Chain of CDK6 CCND3 (human) (P30281 whole entry, looked up): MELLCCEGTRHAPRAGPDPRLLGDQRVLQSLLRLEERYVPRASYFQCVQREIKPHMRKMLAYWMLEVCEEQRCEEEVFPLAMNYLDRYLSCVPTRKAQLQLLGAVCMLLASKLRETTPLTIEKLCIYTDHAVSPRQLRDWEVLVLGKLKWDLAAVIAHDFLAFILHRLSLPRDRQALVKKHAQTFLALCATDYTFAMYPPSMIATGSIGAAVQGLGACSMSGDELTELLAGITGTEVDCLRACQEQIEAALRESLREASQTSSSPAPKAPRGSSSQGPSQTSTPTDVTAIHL
Chain of CDK6 CCND3 (human) (Q00534 whole entry, looked up): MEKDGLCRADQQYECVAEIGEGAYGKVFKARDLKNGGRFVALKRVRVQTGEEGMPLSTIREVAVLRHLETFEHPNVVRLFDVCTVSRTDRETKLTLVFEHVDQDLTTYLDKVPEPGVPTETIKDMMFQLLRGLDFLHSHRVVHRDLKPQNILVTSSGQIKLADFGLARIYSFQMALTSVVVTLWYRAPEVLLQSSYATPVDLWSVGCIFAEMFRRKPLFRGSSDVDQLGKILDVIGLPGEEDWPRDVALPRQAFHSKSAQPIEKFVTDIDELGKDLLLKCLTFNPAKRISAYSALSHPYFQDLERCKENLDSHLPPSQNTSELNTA

Chain of ACVRL1 (human) (P37023 whole entry, looked up): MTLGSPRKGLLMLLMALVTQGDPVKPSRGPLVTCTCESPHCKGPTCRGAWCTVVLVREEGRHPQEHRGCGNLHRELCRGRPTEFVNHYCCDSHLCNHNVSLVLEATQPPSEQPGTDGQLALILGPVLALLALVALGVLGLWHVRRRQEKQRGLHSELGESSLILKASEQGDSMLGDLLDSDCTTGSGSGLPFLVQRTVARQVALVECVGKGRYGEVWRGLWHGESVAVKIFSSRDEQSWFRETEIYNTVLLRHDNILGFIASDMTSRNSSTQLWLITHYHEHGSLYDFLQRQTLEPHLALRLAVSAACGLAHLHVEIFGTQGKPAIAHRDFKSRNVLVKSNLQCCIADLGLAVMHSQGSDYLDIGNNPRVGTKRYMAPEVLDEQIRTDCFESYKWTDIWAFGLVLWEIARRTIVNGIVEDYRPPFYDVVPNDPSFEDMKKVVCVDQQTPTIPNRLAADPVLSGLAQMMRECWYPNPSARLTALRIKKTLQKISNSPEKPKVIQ
Chain of MAPKAPK2 (human) (P49137 whole entry, looked up): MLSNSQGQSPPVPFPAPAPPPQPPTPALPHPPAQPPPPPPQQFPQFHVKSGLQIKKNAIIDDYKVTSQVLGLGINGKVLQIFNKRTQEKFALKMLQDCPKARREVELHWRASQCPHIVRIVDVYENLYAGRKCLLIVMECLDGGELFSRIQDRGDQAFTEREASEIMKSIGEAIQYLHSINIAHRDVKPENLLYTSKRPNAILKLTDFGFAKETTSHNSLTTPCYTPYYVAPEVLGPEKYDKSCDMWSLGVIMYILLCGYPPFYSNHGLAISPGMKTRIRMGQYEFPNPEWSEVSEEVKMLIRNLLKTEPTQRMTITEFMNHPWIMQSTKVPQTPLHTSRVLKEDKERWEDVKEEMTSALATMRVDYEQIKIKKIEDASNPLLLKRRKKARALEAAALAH

## COc1cccc(-c2cc(=O)c3ccccc3o2)c1N
[1]
  residual activity: 94%
[2]
  residual activity: 92.6%
[3]
  residual activity: 86.1%
[4]
  residual activity: 102%
[5]
  residual activity: 93.5%
[6]
  residual activity: 104%
[7]
  residual activity: 88.1%
[8]
  residual activity: 106%
[9]
  residual activity: 98.3%
[10]
  residual activity: 98.6%
[11]
  residual activity: 81.3%
[12]
  residual activity: 92.2%
[13]
  residual activity: 91.2%
[14]
  residual activity: 99.7%
[15]
  residual activity: 69.2%
[16]
  residual activity: 95.3%
[17]
  residual activity: 95.4%
[18]
  residual activity: 97.5%
[19]
  residual activity: 87%
[20]
  residual activity: 108%
[21]
  residual activity: 81.2%
[22]
  residual activity: 97.1%
[23]
  residual activity: 81%
[24]
  residual activity: 82.4%
[25]
  residual activity: 98.5%
[26]
  residual activity: 98.9%
[27]
  residual activity: 96.4%
[28]
  residual activity: 97%
[29]
  residual activity: 99.2%
[30]
  residual activity: 86.8%
[31]
  residual activity: 83%
[32]
  residual activity: 88.3%
[33]
  residual activity: 94%
[34]
  residual activity: 87.7%
[35]
  residual activity: 96.9%
[36]
  residual activity: 97.7%
[37]
  residual activity: 92.5%
[38]
  residual activity: 83.7%
[39]
  residual activity: 97.7%
[40]
  residual activity: 96.4%
[41]
  residual activity: 94.7%
[42]
  residual activity: 99.3%

## COc1cc2ncnc(Nc3ccc(O)c(Br)c3)c2cc1OC
[1]
  residual activity: 97.8%
[2]
  residual activity: 20.1%
[3]
  residual activity: 105%
[4]
  residual activity: 97.7%
[5]
  residual activity: 102%
[6]
  residual activity: 107%
[7]
  residual activity: 91.3%
[8]
  residual activity: 99.6%
[9]
  residual activity: 91.1%
[10]
  residual activity: 107%
[11]
  residual activity: 69.6%
[12]
  residual activity: 97.3%
[13]
  residual activity: 86.9%
[14]
  residual activity: 80.4%
[15]
  residual activity: 86.2%
[16]
  residual activity: 83.7%
[17]
  residual activity: 54.1%
[18]
  residual activity: 65.7%
[19]
  residual activity: 86.3%
[20]
  residual activity: 101%
[21]
  residual activity: 90.5%
[22]
  residual activity: 102%
[23]
  residual activity: 97.2%
[24]
  residual activity: 84.7%
[25]
  residual activity: 96.6%
[26]
  residual activity: 81.5%
[27]
  residual activity: 63.6%
[28]
  residual activity: 131%
[29]
  residual activity: 108%
[30]
  residual activity: 87.4%
[31]
  residual activity: 92.5%
[32]
  residual activity: 101%
[33]
  residual activity: 83.4%
[34]
  residual activity: 83.4%
[35]
  residual activity: 72.3%
[36]
  residual activity: 101%
[37]
  residual activity: 92.4%
[38]
  residual activity: 91.6%
[39]
  residual activity: 89.2%
[40]
  residual activity: 93.4%
[41]
  residual activity: 97.4%
[42]
  residual activity: 102%

## N/C(=N\N=C/c1ccc(-c2cccc([N+](=O)[O-])c2)o1)N[N+](=O)[O-]
[1]
  residual activity: 95.8%
[2]
  residual activity: 101%
[3]
  residual activity: 88.9%
[4]
  residual activity: 96.3%
[5]
  residual activity: 106%
[6]
  residual activity: 88.1%
[7]
  residual activity: 104%
[8]
  residual activity: 86.3%
[9]
  residual activity: 95.7%
[10]
  residual activity: 102%
[11]
  residual activity: 96.7%
[12]
  residual activity: 96.4%
[13]
  residual activity: 91.5%
[14]
  residual activity: 88.9%
[15]
  residual activity: 78.2%
[16]
  residual activity: 90.5%
[17]
  residual activity: 97.7%
[18]
  residual activity: 97.5%
[19]
  residual activity: 98.1%
[20]
  residual activity: 92.7%
[21]
  residual activity: 97.7%
[22]
  residual activity: 99.7%
[23]
  residual activity: 92.6%
[24]
  residual activity: 96.7%
[25]
  residual activity: 88.9%
[26]
  residual activity: 102%
[27]
  residual activity: 94.5%
[28]
  residual activity: 108%
[29]
  residual activity: 147%
[30]
  residual activity: 91.8%
[31]
  residual activity: 100%
[32]
  residual activity: 101%
[33]
  residual activity: 102%
[34]
  residual activity: 97.6%
[35]
  residual activity: 100%
[36]
  residual activity: 86.2%
[37]
  residual activity: 114%
[38]
  residual activity: 98.5%
[39]
  residual activity: 107%
[40]
  residual activity: 101%
[41]
  residual activity: 96.6%
[42]
  residual activity: 94.7%

## COc1cc2c(cc1OC)-c1[nH]nc(Nc3cccc(F)c3)c1C2
[1]
  residual activity: 90.3%
[2]
  residual activity: 81%
[3]
  residual activity: 93%
[4]
  residual activity: 97.2%
[5]
  residual activity: 102%
[6]
  residual activity: 91.4%
[7]
  residual activity: 102%
[8]
  residual activity: 103%
[9]
  residual activity: 91.9%
[10]
  residual activity: 90%
[11]
  residual activity: 98.7%
[12]
  residual activity: 27.9%
[13]
  residual activity: 98%
[14]
  residual activity: 102%
[15]
  residual activity: 99.8%
[16]
  residual activity: 94.5%
[17]
  residual activity: 96.5%
[18]
  residual activity: 97.5%
[19]
  residual activity: 92.1%
[20]
  residual activity: 92.6%
[21]
  residual activity: 93%
[22]
  residual activity: 85.1%
[23]
  residual activity: 92%
[24]
  residual activity: 71.7%
[25]
  residual activity: 96%
[26]
  residual activity: 97.6%
[27]
  residual activity: 91.4%
[28]
  residual activity: 101%
[29]
  residual activity: 95%
[30]
  residual activity: 105%
[31]
  residual activity: 93%
[32]
  residual activity: 88.2%
[33]
  residual activity: 72.1%
[34]
  residual activity: 82.6%
[35]
  residual activity: 87%
[36]
  residual activity: 95%
[37]
  residual activity: 86.8%
[38]
  residual activity: 44.9%
[39]
  residual activity: 105%
[40]
  residual activity: 96%
[41]
  residual activity: 101%
[42]
  residual activity: 99.5%
